Laboratory results as given in ChEMBL document CHEMBL3046914, “Synthesis and anticancer effects of pongamol derivatives on mitogen signaling and cell cycle kinases” (Med Chem Res, 2012).
Calls of active or inactive are those of the source. The calls are words filed in the database; no cut-off is given here.

Columns and labels:
[1] = Cytotoxicity against fibroblasts
IMR-32 [2] = assay: Cell cycle arrest in Homo sapiens (human) IMR32 cells assessed as decrease of G2-M phase cell accumulation at 20 to 200 uM by FACS analysis; format: functional, cell-based
IMR-32 [3] = assay: (§1) Cytotoxicity against Homo sapiens (human) IMR32 cells after 16 hr by MTT assay; format: functional, cell-based
Jurkat [4] = assay: Cytotoxicity against Homo sapiens (human) Jurkat cells after 16 hr by MTT assay; format: functional
IMR-32 [5] = assay: Induction of endoplasmic reticulum stress in Homo sapiens (human) IMR32 cells assessed as Grp94 expression by immunoblot analysis; format: functional, cell-based
IMR-32 [6] = assay: Cytotoxicity against Homo sapiens (human) IMR32 cells at 20 to 200 uM after 16 hr by MTT assay; format: functional, cell-based
IMR-32 [7] = assay: as §1; format: functional
HeLa [8] = assay: Cytotoxicity against Homo sapiens (human) HeLa cells after 16 hr by MTT assay; format: functional
Homo sapiens = species: Homo sapiens; assay: Inhibition of tyrosine kinase (unknown origin)
HeLa [9] = assay: Cell cycle arrest in Homo sapiens (human) HeLa cells assessed as decrease of G1 phase cell accumulation at 20 to 200 uM by FACS analysis; format: functional, cell-based
HeLa [10] = assay: Induction of endoplasmic reticulum stress in Homo sapiens (human) HeLa cells assessed as Grp94 expression by immunoblot analysis; format: functional, cell-based
Jurkat [11] = assay: Induction of endoplasmic reticulum stress in Homo sapiens (human) Jurkat cells assessed as Grp94 expression by immunoblot analysis; format: functional, cell-based
Jurkat [12] = assay: Cell cycle arrest in Homo sapiens (human) Jurkat cells assessed as decrease of G1 phase cell accumulation at 20 to 200 uM by FACS analysis; format: functional, cell-based
Jurkat [13] = assay: Cell cycle arrest in Homo sapiens (human) Jurkat cells assessed as decrease of G2-M phase cell accumulation at 20 to 200 uM by FACS analysis; format: functional, cell-based
HeLa [14] = assay: Cell cycle arrest in Homo sapiens (human) HeLa cells assessed as decrease of G2-M phase cell accumulation at 20 to 200 uM by FACS analysis; format: functional, cell-based
IMR-32 [15] = assay: Cell cycle arrest in Homo sapiens (human) IMR32 cells assessed as decrease of G1 phase cell accumulation at 20 to 200 uM by FACS analysis; format: functional, cell-based
[16] = target: Cyclin-dependent kinase 2 (Homo sapiens) (UniProt P24941); assay: Destabilization of CDK2 in Homo sapiens (human) Jurkat cells by immunoblot analysis; format: cell-based
[17] = target: Cyclin-dependent kinase 2 (Homo sapiens) (UniProt P24941); assay: Destabilization of CDK2 in Homo sapiens (human) IMR32 cells by immunoblot analysis; format: cell-based; conditions: IMR-32
[18] = target: Cyclin-dependent kinase 2 (Homo sapiens) (UniProt P24941); assay: Destabilization of CDK2 in Homo sapiens (human) HeLa cells by immunoblot analysis; format: cell-based
[19] = target: Mitogen-activated protein kinase 3 (Homo sapiens) (UniProt P27361); assay: Destabilization of ERK1 in Homo sapiens (human) IMR32 cells by immunoblot analysis; format: cell-based; conditions: IMR-32
Chain of Mitogen-activated protein kinase 3 (Homo sapiens) (P27361 whole entry): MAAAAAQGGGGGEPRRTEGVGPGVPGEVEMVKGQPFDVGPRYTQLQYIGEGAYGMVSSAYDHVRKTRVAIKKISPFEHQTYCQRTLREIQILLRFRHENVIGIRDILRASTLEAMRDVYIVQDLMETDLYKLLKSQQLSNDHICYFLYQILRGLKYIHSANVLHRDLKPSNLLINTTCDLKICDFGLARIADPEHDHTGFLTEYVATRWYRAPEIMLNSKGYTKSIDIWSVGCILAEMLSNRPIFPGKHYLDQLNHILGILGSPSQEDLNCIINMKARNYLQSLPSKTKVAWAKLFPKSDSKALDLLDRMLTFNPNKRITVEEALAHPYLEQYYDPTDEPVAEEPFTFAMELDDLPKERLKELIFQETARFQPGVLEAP

IMR-32 [20] = assay: Cytotoxicity against Homo sapiens (human) IMR32 cells at 200 uM after 16 hr by MTT assay; format: functional
[21] = target: Mitogen-activated protein kinase 3 (Homo sapiens) (UniProt P27361); assay: Destabilization of ERK1 in Homo sapiens (human) Jurkat cells by immunoblot analysis; format: cell-based
[22] = target: Mitogen-activated protein kinase 3 (Homo sapiens) (UniProt P27361); assay: Destabilization of ERK1 in Homo sapiens (human) HeLa cells by immunoblot analysis; format: cell-based

| SMILES | Activity [1] | Activity (IMR-32 [2]) | Activity (IMR-32 [3]) | Activity (Jurkat [4]) [%] | Activity (IMR-32 [6]) | Activity (IMR-32 [7]) [%] | Activity (HeLa [8]) [%] | inhibition (Homo sapiens) | Activity (HeLa [9]) | Activity (Jurkat [12]) | Activity (Jurkat [13]) | Activity (HeLa [14]) | Activity (IMR-32 [15]) | other results |
| --- | --- | --- | --- | --- | --- | --- | --- | --- | --- | --- | --- | --- | --- | --- |
| COc1c(-c2cc(-c3ccccc3)n(-c3cccc([N+](=O)[O-])c3)n2)ccc2occc12 | Non-toxic | inactive | Dose-dependent effect | – | – | – | – | – | – | – | – | – | – | – |
| COc1c(C(=O)/C=C(\O)c2ccccc2)ccc2occc12 [PONGAMOL] | Non-toxic | Active | – | 17 | inactive | 38 | 23 | inactive | Active | Active | Active | Active | – | Activity (IMR-32 [5]): Active; Activity (HeLa [10]): Active; Activity (Jurkat [11]): Active |
| COc1c(-c2cc(-c3ccccc3)n(-c3ccc(Cl)cc3Cl)n2)ccc2occc12 | Non-toxic | inactive | – | – | inactive | – | – | – | – | – | – | – | – | – |
| COc1c(-c2cc(-c3ccccc3)n(-c3ccc(F)cc3)n2)ccc2occc12 | Non-toxic | inactive | Dose-dependent effect | – | – | – | – | – | – | – | – | – | – | – |
| COc1c(-c2cc(-c3ccccc3)n(-c3ccccc3C)n2)ccc2occc12 | Non-toxic | inactive | Dose-dependent effect | – | – | – | – | – | – | – | – | – | Active | – |
| COc1c(-c2cc(-c3ccccc3)on2)ccc2occc12 | Non-toxic | Active | Dose-dependent effect | 31 | – | 58 | 26 | inactive | Active | Active | Active | Active | Active | Activity [16]: Active; Activity [17]: Active; Activity [18]: Active; Activity [19]: Active; Activity (IMR-32 [20]): 60%; Activity [21]: Active; Activity [22]: Active |
| COc1c(-c2cc(-c3ccccc3)n(-c3cccc(F)c3)n2)ccc2occc12 | Non-toxic | Active | Dose-dependent effect | 35 | – | 86 | 28 | inactive | Active | Active | Active | Active | Active | Activity [16]: Active; Activity (IMR-32 [5]): Active; Activity [17]: Active; Activity [18]: Active; Activity [19]: Active; Activity (IMR-32 [20]): 60%; Activity (HeLa [10]): Active; Activity (Jurkat [11]): Active |
| COc1c(-c2cc(-c3ccccc3)n(-c3ccccc3)n2)ccc2occc12 | Non-toxic | inactive | – | – | inactive | – | – | – | – | – | – | – | – | – |
| COc1c(-c2cc(-c3ccccc3)[nH]n2)ccc2occc12 | Non-toxic | inactive | Dose-dependent effect | – | – | – | – | – | – | – | – | – | – | – |
| COc1c(-c2cc(-c3ccccc3)n(-c3ccc(C)cc3C)n2)ccc2occc12 | Non-toxic | inactive | – | – | inactive | – | – | – | – | – | – | – | – | – |
| COc1ccc(-n2nc(-c3ccc4occc4c3OC)cc2-c2ccccc2)cc1 | Non-toxic | inactive | – | – | inactive | – | – | – | – | – | – | – | – | – |
| COc1c(-c2cc(-c3ccccc3)n(-c3ccccc3F)n2)ccc2occc12 | Non-toxic | inactive | Dose-dependent effect | 45 | – | 71 | 35 | inactive | Active | Active | Active | Active | Active | Activity [16]: Active; Activity [17]: Active; Activity [18]: Active; Activity (IMR-32 [20]): 60%; Activity [22]: Active |
| COc1c(-c2cc(-c3ccccc3)n(-c3ccc([N+](=O)[O-])cc3[N+](=O)[O-])n2)ccc2occc12 | Non-toxic | inactive | Dose-dependent effect | – | – | – | – | – | – | – | – | – | – | – |
